# Assay results: PubChem BioAssay (NCI)
#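 In this assay, cells in 96-well plates receive the compound at five concentrations for 48 hours. Endpoints are linearly interpolated between the surrounding concentrations. The concentration for 50% growth inhibition is given as GI50. TGI denotes the concentration required for complete inhibition of growth.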
# Key:
# Test in all cases: NCI-60 cell line screen, 48 h
# SK-OV-3 ovarian = system: SK-OV-3 ovarian
# RXF 393 renal = system: RXF 393 renal
# M14 melanoma = system: M14 melanoma
# A549 NSCLC = system: A549 NSCLC
# HT29 colon = system: HT29 colon
# SR leukemia = system: SR leukemia
# HOP-92 NSCLC = system: HOP-92 NSCLC
# SK-MEL-2 melanoma = system: SK-MEL-2 melanoma
# UACC-62 melanoma = system: UACC-62 melanoma
# IGROV1 ovarian = system: IGROV1 ovarian
# HS 578T breast = system: HS 578T breast
# CCRF-CEM leukemia = system: CCRF-CEM leukemia
# BT-549 breast = system: BT-549 breast
# MDA-MB-231 breast = system: MDA-MB-231 breast
# SF-268 CNS = system: SF-268 CNS
# HL-60(TB) leukemia = system: HL-60(TB) leukemia
# SN12C renal = system: SN12C renal
# DU-145 prostate = system: DU-145 prostate
# SW-620 colon = system: SW-620 colon
# COLO 205 colon = system: COLO 205 colon
# NCI/ADR-RES ovarian = system: NCI/ADR-RES ovarian
# SNB-75 CNS = system: SNB-75 CNS
# NCI-H23 lung = system: NCI-H23 lung
# SF-539 CNS = system: SF-539 CNS
# HOP-62 NSCLC = system: HOP-62 NSCLC
# MDA-MB-435 = system: MDA-MB-435
# LOX IMVI melanoma = system: LOX IMVI melanoma
# SK-MEL-5 melanoma = system: SK-MEL-5 melanoma
# UACC-257 melanoma = system: UACC-257 melanoma
# TK-10 renal = system: TK-10 renal
# HCT-116 colon = system: HCT-116 colon
# MOLT-4 leukemia = system: MOLT-4 leukemia
# OVCAR-3 ovarian = system: OVCAR-3 ovarian
# HCC-2998 colon = system: HCC-2998 colon
# ACHN renal = system: ACHN renal
# 786-0 renal = system: 786-0 renal
# MALME-3M melanoma = system: MALME-3M melanoma
# OVCAR-4 ovarian = system: OVCAR-4 ovarian
# SK-MEL-28 melanoma = system: SK-MEL-28 melanoma
# OVCAR-5 ovarian = system: OVCAR-5 ovarian
# SF-295 CNS = system: SF-295 CNS
# SNB-19 CNS = system: SNB-19 CNS
# NCI-H226 lung = system: NCI-H226 lung
# U251 CNS = system: U251 CNS
# OVCAR-8 ovarian = system: OVCAR-8 ovarian
# K-562 leukemia = system: K-562 leukemia
smiles,measurement,setting,value
O=C(Nc1ccc(OCc2nnc(-c3ccc(Cl)cc3)o2)c(F)c1)c1ccc(Cl)c(C(F)(F)F)c1,GI50,SK-OV-3 ovarian,> 50 µM
same,TGI,SK-OV-3 ovarian,> 50 µM
same,GI50,RXF 393 renal,> 50 µM
same,TGI,RXF 393 renal,> 50 µM
same,GI50,M14 melanoma,> 50 µM
same,TGI,M14 melanoma,> 50 µM
same,GI50,A549 NSCLC,> 50 µM
same,TGI,A549 NSCLC,> 50 µM
same,GI50,HT29 colon,> 50 µM
same,TGI,HT29 colon,> 50 µM
same,GI50,SR leukemia,> 50 µM
same,TGI,SR leukemia,> 50 µM
same,GI50,HOP-92 NSCLC,> 50 µM
same,TGI,HOP-92 NSCLC,> 50 µM
same,GI50,SK-MEL-2 melanoma,> 50 µM
same,TGI,SK-MEL-2 melanoma,> 50 µM
same,GI50,UACC-62 melanoma,> 50 µM
same,TGI,UACC-62 melanoma,> 50 µM
same,GI50,IGROV1 ovarian,> 50 µM
same,TGI,IGROV1 ovarian,> 50 µM
same,GI50,HS 578T breast,> 50 µM
same,TGI,HS 578T breast,> 50 µM
same,GI50,CCRF-CEM leukemia,> 50 µM
same,TGI,CCRF-CEM leukemia,> 50 µM
same,GI50,BT-549 breast,> 50 µM
same,TGI,BT-549 breast,> 50 µM
same,GI50,MDA-MB-231 breast,> 50 µM
same,TGI,MDA-MB-231 breast,> 50 µM
same,GI50,SF-268 CNS,> 50 µM
same,TGI,SF-268 CNS,> 50 µM
same,GI50,HL-60(TB) leukemia,> 50 µM
same,TGI,HL-60(TB) leukemia,> 50 µM
same,GI50,SN12C renal,> 50 µM
same,TGI,SN12C renal,> 50 µM
same,GI50,DU-145 prostate,> 50 µM
same,TGI,DU-145 prostate,> 50 µM
same,GI50,SW-620 colon,> 50 µM
same,TGI,SW-620 colon,> 50 µM
same,GI50,COLO 205 colon,> 50 µM
same,TGI,COLO 205 colon,> 50 µM
same,GI50,NCI/ADR-RES ovarian,> 50 µM
same,TGI,NCI/ADR-RES ovarian,> 50 µM
same,GI50,SNB-75 CNS,> 50 µM
same,TGI,SNB-75 CNS,> 50 µM
same,GI50,NCI-H23 lung,> 50 µM
same,TGI,NCI-H23 lung,> 50 µM
same,GI50,SF-539 CNS,> 50 µM
same,TGI,SF-539 CNS,> 50 µM
same,GI50,HOP-62 NSCLC,> 50 µM
same,TGI,HOP-62 NSCLC,> 50 µM
same,GI50,MDA-MB-435,> 50 µM
same,TGI,MDA-MB-435,> 50 µM
same,GI50,LOX IMVI melanoma,> 50 µM
same,TGI,LOX IMVI melanoma,> 50 µM
same,GI50,SK-MEL-5 melanoma,> 50 µM
same,TGI,SK-MEL-5 melanoma,> 50 µM
same,GI50,UACC-257 melanoma,> 50 µM
same,TGI,UACC-257 melanoma,> 50 µM
same,GI50,TK-10 renal,> 50 µM
same,TGI,TK-10 renal,> 50 µM
same,GI50,HCT-116 colon,> 50 µM
same,TGI,HCT-116 colon,> 50 µM
same,GI50,MOLT-4 leukemia,> 50 µM
same,TGI,MOLT-4 leukemia,> 50 µM
same,GI50,OVCAR-3 ovarian,> 50 µM
same,TGI,OVCAR-3 ovarian,> 50 µM
same,GI50,HCC-2998 colon,> 50 µM
same,TGI,HCC-2998 colon,> 50 µM
same,GI50,ACHN renal,> 50 µM
same,TGI,ACHN renal,> 50 µM
same,GI50,786-0 renal,> 50 µM
same,TGI,786-0 renal,> 50 µM
same,GI50,MALME-3M melanoma,> 50 µM
same,TGI,MALME-3M melanoma,> 50 µM
same,GI50,OVCAR-4 ovarian,> 50 µM
same,TGI,OVCAR-4 ovarian,> 50 µM
same,GI50,SK-MEL-28 melanoma,> 50 µM
same,TGI,SK-MEL-28 melanoma,> 50 µM
same,GI50,OVCAR-5 ovarian,> 50 µM
same,TGI,OVCAR-5 ovarian,> 50 µM
same,GI50,SF-295 CNS,> 50 µM
same,TGI,SF-295 CNS,> 50 µM
same,GI50,SNB-19 CNS,> 50 µM
same,TGI,SNB-19 CNS,> 50 µM
same,GI50,NCI-H226 lung,> 50 µM
same,TGI,NCI-H226 lung,> 50 µM
same,GI50,U251 CNS,> 50 µM
same,TGI,U251 CNS,> 50 µM
same,GI50,OVCAR-8 ovarian,> 50 µM
same,TGI,OVCAR-8 ovarian,> 50 µM
same,GI50,K-562 leukemia,> 50 µM
same,TGI,K-562 leukemia,> 50 µM
